Laboratory results: US20060063792A1, “Substituted morphinans and methods of their use” (Adolor Corporation, priority 2004, published 2006)
pIC50, pKi: −log10 of the molar value.

Experiments:
μ opioid receptor [1] = target: T1, μ opioid receptor (Homo sapiens, UniProt P35372); test: Inhibition of agonist (loperamide)-stimulated [35S]GTPγS binding to membranes with cloned human μ opioid receptor; type: biochemical
T1 construct: expressed in transfected cells
Experimental: The potencies of the antagonists were assessed by their abilities to inhibit agonist-stimulated [^35S]GTPγS binding to membranes containing the cloned human μ, κ, or δ opioid receptors. The agonists used were loperamide for the μ opioid receptor, U50488H for the κ opioid receptor, and BW373U86 for the δ opioid receptor.
To determine the IC50 value, which was the concentration to give half-maximal inhibition of agonist-stimulated [^35S]GTPγS binding, the amount of [^35S]GTPγS bound in the presence of a fixed concentration of agonist and various concentrations of antagonist was measured. The fixed concentration of agonist was the EC80 for the agonist, which was the concentration to give 80% of the relative maximum stimulation of […] binding. The IC50 value was determined from a best nonlinear regression fit of the data to the following equation, [formula] where Y is the amount of [^35S]GTPγS bound at each concentration of antagonist, Bottom is the calculated amount of [^35S]GTPγS bound in the presence of an infinite concentration of antagonist, Top is the calculated amount of [^35S]GTPγS bound in the absence of added antagonist, X is the logarithm of the concentration of antagonist, and LogIC50 is the logarithm of the concentration of antagonist where the amount of [^35S]GTPγS bound is halfway between Bottom and Top. The nonlinear regression fit was performed using GraphPad Prism® version 3.00 for Windows (GraphPad Software, San Diego, Calif.). Mouse Gastrointestinal Transit (GIT) Assay (in vivo Assay)

μ opioid receptor [2] = target: T1, μ opioid receptor; test: [3H]diprenorphine receptor binding, cloned human μ opioid receptor
Experimental: The potencies of the compounds were determined by testing the ability of a range of concentrations of each compound to inhibit the binding of the non-selective opioid antagonist, [^3H]diprenorphine, to the cloned human μ, κ, and δ opioid receptors, expressed in separate cell lines. IC50 values were obtained by nonlinear analysis of the data using GraphPad Prism version 3.00 for Windows (GraphPad Software, San Diego). Ki values were obtained by Cheng-Prusoff corrections of IC50 values.
The receptor binding method (DeHaven and DeHaven-Hudkins, “Characterization of Opioid Receptors”, Current Protocols in Pharmacology (Eds. Enna S J and Williams M) 1.4.1-1.4.12, John Wiley & Sons, Inc., New York (1998)) was a modification of the method of Raynor, et al., Mol. Pharmacol. 45:330-334 (1994). After dilution in buffer A and homogenization as before, membrane proteins (10-80 μg) in 250 μL were added to mixtures containing test compound and [^3H]diprenorphine (0.5 to 1.0 nM, 40,000 to 50,000 dpm) in 250 μL of buffer A in 96-well deep-well polystyrene titer plates (Beckman). […] The filters were rinsed 4 times with 1 mL of cold 50 mM Tris HCl, pH 7.8 and radioactivity remaining on the filters determined by scintillation spectroscopy. Nonspecific binding was determined by the minimum values of the titration curves and was confirmed by separate assay wells containing 10 μM naloxone. Ki values were determined by Cheng-Prusoff corrections of IC50 values derived from nonlinear regression fits of 12 point titration curves using GraphPad Prism® version 3.00 for Windows (GraphPad Software, San Diego, Calif.).
To determine the equilibrium dissociation constant for the inhibitors (Ki), radioligand bound (cpm) in the presence of various concentrations of test compounds was measured. […] The Ki values were then determined from the […] values by the following equation, [formula] where [ligand] is the concentration of radioligand and Kd is the equilibrium dissociation constant for the radioligand.

T1 sequence (P35372 whole entry): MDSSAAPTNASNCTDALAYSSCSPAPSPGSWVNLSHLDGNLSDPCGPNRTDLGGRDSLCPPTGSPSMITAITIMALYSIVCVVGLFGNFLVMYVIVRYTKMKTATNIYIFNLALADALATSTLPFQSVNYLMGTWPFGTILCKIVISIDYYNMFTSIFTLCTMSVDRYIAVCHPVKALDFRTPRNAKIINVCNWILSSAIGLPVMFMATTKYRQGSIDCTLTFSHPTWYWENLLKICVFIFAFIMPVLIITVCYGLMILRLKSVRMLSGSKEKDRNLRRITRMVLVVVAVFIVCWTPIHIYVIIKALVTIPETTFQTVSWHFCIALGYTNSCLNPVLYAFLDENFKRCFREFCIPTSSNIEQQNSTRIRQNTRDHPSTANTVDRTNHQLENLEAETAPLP

Compound | pIC50 (μ opioid receptor [1]) | pKi (μ opioid receptor [2])
O=C(O)CNC(=O)/C=C1/CC[C@@]2(O)[C@H]3Cc4ccc(O)c5c4[C@@]2(CCN3CC2CC2)[C@H]1O5 [Example 33, 4,5α-Epoxy-3,14β-dihydroxy-6,6Z(N-acryloylamino-acetic acid)-17-(cyclopropylmethyl)morphinan] | 7.67 | 8.52
CC(=O)N[C@@]12CC[C@H](NCc3ccccc3)[C@@H]3Oc4c(O)ccc5c4[C@@]31CCN(CC1CC1)[C@@H]2C5 [Example 73, 4,5α-Epoxy-3-hydroxy-14β-acetylamino-6-α-benzylamino-17-(cyclopropylmethyl)morphinan] | 8.38 | 8.55
O=C(O)CCCC(=O)N[C@@]12CCC(=O)[C@@H]3Oc4c(O)ccc5c4[C@@]31CCN(CC1CC1)[C@@H]2C5 [Example 85] | 8.96 | 8.39
